This is an account of results in patent US9574190B2, “Screening method for peptide binding to target molecule in pH-dependent manner” (The University of Tokyo, priority 2012, dated 2017).

The assay deals with T1, FcRn (Homo sapiens, UniProt P55899).
T1 construct: human soluble FcRn chemically biotinated with NHS-biotin
As to the kind of experiment: Biacore T100 measurement of dissociation constant of solid-phase synthesized peptide with immobilized FcRn. Format: binding. Here is the method:
In order to find whether a peptide alone interacts with FcRn in a pH dependent manner, the peptide 2G01D not having SGSGS on the C-terminal side of 8D-01 and amidated at the C-terminal was synthesized on a solid phase and a dissociation constant Kd binding constant was measured using Biacore T100 (GE Healthcare). FcRn was immobilized onto a sensor chip by an amine coupling method. The following is the peptide 2G01D:
On the other hand, a solid-phase synthesized peptide 2G01D was added as an analyte to a phosphate buffer having a pH 6.0 or 7.4 and a dissociation constant was measured.
A general note: SPR reads the build-up and loss of mass on a sensor chip optically.

Bridge positions count the residues as written; N and C are the ends. Square brackets hold non-standard residues; d marks the D form. Peptide text beside a SMILES is read from it. Tyr(3-NO2) = N[C@@H](Cc1ccc(O)c([N+](=O)[O-])c1)C(=O)O; dTyr(3-NO2) = N[C@H](Cc1ccc(O)c([N+](=O)[O-])c1)C(=O)O; Arg(NO2) = N=C(NCCC[C@H](N)C(=O)O)N[N+](=O)[O-]

T1 sequence (P55899 24-297 limits assumed): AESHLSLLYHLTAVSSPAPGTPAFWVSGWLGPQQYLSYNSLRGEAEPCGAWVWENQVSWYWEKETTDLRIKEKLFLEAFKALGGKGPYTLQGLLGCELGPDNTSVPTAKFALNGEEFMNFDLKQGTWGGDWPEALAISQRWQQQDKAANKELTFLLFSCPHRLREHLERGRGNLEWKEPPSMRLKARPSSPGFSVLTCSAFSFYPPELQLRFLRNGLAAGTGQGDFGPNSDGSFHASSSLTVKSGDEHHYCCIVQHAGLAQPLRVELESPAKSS
T1 sequence (P61769 21-119 partner): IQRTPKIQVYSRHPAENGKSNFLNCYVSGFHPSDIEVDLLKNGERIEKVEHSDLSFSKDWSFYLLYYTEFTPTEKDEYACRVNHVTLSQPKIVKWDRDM

The molecule `CC(C)C[C@@H]1NC(=O)[C@H](Cc2ccc(O)c([N+](=O)[O-])c2)NC(=O)[C@H](CC(C)C)NC(=O)[C@@H]2CCCN2C(=O)[C@H](CC(=O)O)NC(=O)CNC(=O)[C@H](CCCNC(=N)N[N+](=O)[O-])NC(=O)[C@H](CC(N)=O)NC(=O)[C@H](Cc2ccc(O)cc2)NC(=O)[C@H](CC(C)C)NC(=O)[C@H](Cc2ccc(O)c([N+](=O)[O-])c2)NC(=O)[C@H](Cc2ccccc2)NC(=O)[C@@H](Cc2ccc(O)c([N+](=O)[O-])c2)NC(=O)CSC[C@@H](C(=O)NCC(N)=O)NC1=O` [2G01D] ({CH2CO}-[dTyr(3-NO2)]F[Tyr(3-NO2)]LYN[Arg(NO2)]GDPL[Tyr(3-NO2)]LCG-NH2; thioether N-14) came in with a koff (pH 6.0, phosphate buffer) of 0.00394 s⁻¹ and a koff (pH 7.4, phosphate buffer) of 0.00955 s⁻¹. In addition, the kon runs as follows: (pH 6.0, phosphate buffer) 925000 M⁻¹ s⁻¹; (pH 7.4, phosphate buffer) 32600 M⁻¹ s⁻¹.

What is called koff is the first-order rate constant of dissociation. As a reminder, the kon is a measure of how fast the partners come together.
